Laboratory results as given in patent US20050112573A1, “Method of detecting toxic substance” (priority 2001, published 2005).

Tested on: yeast genes (level of expressed mRNA)
Assay: DNA chip analysis of expressed mRNA of yeast genes after 2 h culture with a toxic chemical substance
Type: cell-based, Saccharomyces cerevisiae S288C
Method: Yeast (Saccharomyces cerevtisiae S288C (α SUC2mal mel gap2 CUP1)) were cultured at 25° C. on YPD medium (yeast extract 1%, polypepton 2%, glucose 2%). One of toxic chemical substances was added to the cell at logarithmic growth phase, and the cell was further cultured for two hours. Cell was cultured without any chemical substance in the same condition, and was used as control. Concentrations of the chemical substances were defined to inhibit the growth of the yeast but not lead to death.
After the completion of cultivation, the culture was centrifuged to collect the cells. To the cells, sodium acetate buffer (50 mM sodium acetate, 10 mM EDTA, 1% SDS) was added, and the mixture was shaken at 65° C. for five minutes, followed by returning to room temperature, and obtaining the supernatant, which procedure was repeated two times. To the supernatant, ½ amount of a solution of phenol/chloroform was added, and the mixture was centrifuged to give a supernatant, which was added with an equal amount of chloroform, and the mixture was centrifuged to give a supernatant. To the supernatant, an equal amount of isopropanol containing 0.3 M sodium acetate was added, and the mixture was allowed to stand at room temperature for 30 minutes, after which the mixture was centrifuged to give a sediment of the whole RNAs. Seventy % ethanol was added to the sediment, and the mixture was again centrifuged to give a sediment, which was then dried and dissolved in water. mRNA was isolated from the whole RNAs as followings. In view of the fact that a poly A chain is attached to the 3′ terminus of mRNA, a polynucleotide having a poly T structure which was immobilized on the surface of latex beads was used to trap the mRNA, and then the mRNA was washed and eluted with spine column (Oligotex-dT30<Super>mRNA Purification Kit, Takara). Reverse transcription of the mRNA was conducted with a reverse transcriptase (Super Script II Reverse Transcriptase; catalogue No. 18064-014, GibcoBRL) using fluorescence-labeled nucleotides to give cDNAs that were introduced with Cy3-dUTP or Cy5-dUTP during the reverse transcription.
The labeled cDNAs were dissolved in TE buffer (10 mM Tris-HCl/1 mM EDTA, pH8.0), and the solution was dropped on the DNA chip containing the whole genes of yeast (DNA Chip Research Inc. Japan) so that the cDNAs were hybridized on the DNA chip at 65° C. for over 12 hours. The fluoresces intensity of the DNA chip was read with a scanner, and the ratio relative to the fluorescence intensity resulting from the absence of chemical substance was estimated as the following, which is shown in Tables 1 to 9: [formula]
In the Tables, “Intensity” indicated in the rightmost column is a value of the level of expressed mRNA of each gene in control cells as divided by the average level of the expressions of the whole genes.

In the case of `C=CC=O` [(14), acrolein], the “The level of expressed mRNA in the presence of chemical substance/absence: YDR128W” value (gene YDR128W) is reported as 1.0, the “The level of expressed mRNA in the presence of chemical substance/absence: YDR133C” value (gene YDR133C) is reported as 0.6 and the “The level of expressed mRNA in the presence of chemical substance/absence: YDR140W” value (gene YDR140W) is reported as 3.2. The “The level of expressed mRNA in the presence of chemical substance/absence: YDR221W” value (gene YDR221W) was 1.0, the “The level of expressed mRNA in the presence of chemical substance/absence: YDR250C” value (gene YDR250C) was 0.9 and the “The level of expressed mRNA in the presence of chemical substance/absence: YDR271C” value (gene YDR271C) was 1.4. For the same compound, the “The level of expressed mRNA in the presence of chemical substance/absence: YDR278C” value (gene YDR278C) was 0.9, the “The level of expressed mRNA in the presence of chemical substance/absence: YDR281C” value (gene YDR281C) was 1.2 and the “The level of expressed mRNA in the presence of chemical substance/absence: YDR316W” value (gene YDR316W) was 0.7. For the same compound, the “The level of expressed mRNA in the presence of chemical substance/absence: YDR338C” value (gene YDR338C) was 1.0, the “The level of expressed mRNA in the presence of chemical substance/absence: YDR366C” value (gene YDR366C) was 1.4 and the “level of expressed mRNA in the presence of chemical substance/in its absence” value (“level … of chemical substance/in its absence” below) (gene YDR380W) was 0.6. For the same compound, the “level … of chemical substance/in its absence” value (gene YDR410C) was 1.3, the “The level of expressed mRNA in the presence of chemical substance/absence: YDR421W” value (gene YDR421W) was 1.2 and the “The level of expressed mRNA in the presence of chemical substance/absence: YDR425W” value (gene YDR425W) was 1.3. The “The level of expressed mRNA in the presence of chemical substance/absence: YDR485C” value (gene YDR485C) was 1.1, the “level … of chemical substance/in its absence” value (gene YDR487C) was 2.5 and the “level … of chemical substance/in its absence” value (gene YDR502C) was 0.8. For the same compound, the “The level of expressed mRNA in the presence of chemical substance/absence: YDR504C” value (gene YDR504C) was 1.3, the “level … of chemical substance/in its absence” value (gene YEL011W) was 1.5 and the “level … of chemical substance/in its absence” value (gene YEL020C) was 1.0. For the same compound, the “The level of expressed mRNA in the presence of chemical substance/absence: YEL044W” value (gene YEL044W) was 0.6, the “level … of chemical substance/in its absence” value (gene YER026C) was 1.1 and the “level … of chemical substance/in its absence” value (gene YER069W) was 1.3. For the same compound, the “The level of expressed mRNA in the presence of chemical substance/absence: YER092W” value (gene YER092W) was 1.2, the “The level of expressed mRNA in the presence of chemical substance/absence: YER182W” value (gene YER182W) was 1.9 and the “The level of expressed mRNA in the presence of chemical substance/absence: YFL042C” value (gene YFL042C) was 1.2. The “level … of chemical substance/in its absence” value (gene YFR015C) was 3.1, the “The level of expressed mRNA in the presence of chemical substance/absence: YFR026C” value (gene YFR026C) was 1.0 and the “The level of expressed mRNA in the presence of chemical substance/absence: YFR056C” value (gene YFR056C) was 0.6. The “level … of chemical substance/in its absence” value (gene YGL001C) was 1.1, the “level … of chemical substance/in its absence” value (gene YGL022W) was 0.5 and the “level … of chemical substance/in its absence” value (gene YGL039W) was 0.9. The “The level of expressed mRNA in the presence of chemical substance/absence: YGL041C” value (gene YGL041C) was 1.2, the “The level of expressed mRNA in the presence of chemical substance/absence: YGL045W” value (gene YGL045W) was 1.1 and the “The level of expressed mRNA in the presence of chemical substance/absence: YGL057C” value (gene YGL057C) was 1.5. For the same compound, the “The level of expressed mRNA in the presence of chemical substance/absence: YGL088W” value (gene YGL088W) was 1.4, the “level … of chemical substance/in its absence” value (gene YGL104C) was 1.0 and the “level … of chemical substance/in its absence” value (gene YGL134W) was 1.1. For the same compound, the “level … of chemical substance/in its absence” value (gene YGL154C) was 1.1, the “The level of expressed mRNA in the presence of chemical substance/absence: YGL183C” value (gene YGL183C) was 1.7 and the “level … of chemical substance/in its absence” value (gene YGL209W) was 1.6. For the same compound, the “The level of expressed mRNA in the presence of chemical substance/absence: YGL223C” value (gene YGL223C) was 0.9, the “level … of chemical substance/in its absence” value (gene YGL253W) was 0.5 and the “The level of expressed mRNA in the presence of chemical substance/absence: YGR038W” value (gene YGR038W) was 1.4. For the same compound, the “level … of chemical substance/in its absence” value (gene YGR060W) was 0.8, the “The level of expressed mRNA in the presence of chemical substance/absence: YGR139W” value (gene YGR139W) was 0.9 and the “The level of expressed mRNA in the presence of chemical substance/absence: YGR156W” value (gene YGR156W) was 1.6. The “The level of expressed mRNA in the presence of chemical substance/absence: YGR198W” value (gene YGR198W) was 0.8, the “The level of expressed mRNA in the presence of chemical substance/absence: YGR210C” value (gene YGR210C) was 0.8 and the “The level of expressed mRNA in the presence of chemical substance/absence: YGR211W” value (gene YGR211W) was 0.4. For the same compound, the “The level of expressed mRNA in the presence of chemical substance/absence: YGR237C” value (gene YGR237C) was 0.6, the “The level of expressed mRNA in the presence of chemical substance/absence: YGR243W” value (gene YGR243W) was 1.9 and the “The level of expressed mRNA in the presence of chemical substance/absence: YGR250C” value (gene YGR250C) was 1.3. The “The level of expressed mRNA in the presence of chemical substance/absence: YGR266W” value (gene YGR266W) was 0.8, the “The level of expressed mRNA in the presence of chemical substance/absence: YGR277C” value (gene YGR277C) was 1.5 and the “level … of chemical substance/in its absence” value (gene YGR282C) was 1.0.
